These results are taken from patent US20160158330A1, “METHODS OF PREPARATION AND COMPOSITION OF PEPTIDE CONSTRUCTS USEFUL FOR TREATMENT OF RHEUMATOID ARTHRITIS” (CEL-SCI CORPORATION, priority 2013, published 2016).

Entries after “also recorded” stand apart in the source; their conditions may differ. Where no end group is shown, it is not given here. [ ]: non-standard residue; d: D form. Cit = NC(=O)NCCC[C@H](N)C(=O)O

In experiment [1] the test system is IFNγ:IL-4. The experiment can be described thus: T cell polarization by Th1:Th2 cytokine (IFNγ:IL-4) ratio, ELISA. The format is cell-based. The settings on record: 5 μM peptide, splenocytes of PGIA BALB/c mice; baseline ratio around 3.2. As to the method:
(§1) FIG. 3 illustrates T cell proliferation and T cell polarization (TH1:TH2) induced by P70, DerG-PG70 and J-PG70 peptides (Panel A). […] Panel B) T cell polarization by Th1:Th2 cytokine (IFNγ:IL-4) ratios. […] It is noted that these two responses are mutually exclusive. Amounts of IFNγ and IL-4 in culture fluid samples were determined by ELISA (enzyme-linked immunosorbent assay, a common test that uses antibodies and color change to measure protein amounts). The “baseline” value for this ratio, i.e., the value of this ratio in untreated (unpolarized) T cells, is around 3.2 (the black bar, “None,” in FIG. 3B). An increased ratio indicates relatively more IFNγ and/or less IL-4, which in turn indicates a shift towards a Th1 response and away from a Th2 response. A decreased value (below 3.2) indicates relatively more IL-4 and/or less IFNγ and thus a shift towards a Th2 response and away from a Th1 response. Cells were isolated from spleens by gently pushing the organ through a wire cell sieve mesh screen with a sterile 5 cc syringe plunger. The spleens were from BALB/c retired female breeder mice with PGIA (n=3), cultured individually for 5 days in the absence (None) or presence of the different designated peptides (5 μM each) on PG protein (10 m). As has been previously shown, the only cell type incorporating tritiated [^3H]thymidine into DNA are T cells. Therefore, proliferation of splenic T cells was measured in 96 well plates by use of [^3H]thymidine ([…]; specific activity: 2 Ci/mmol, Amersham, Arlington Heights, Ill.) incorporation from day 4 to 5 and expressed as a stimulation index based on the counts per minute normalized to the untreated control (panel A). Treatments were done in triplicate wells for the proliferation assay, and identical triplicate wells were used to harvest culture fluid at 48 hours for cytokine assays. The amounts of IFNγ (a Th1 cytokine) and IL-4 (a Th2 cytokine) in the media of the same cultures were determined by ELISA and expressed as ratios.
(§2) The effect of L.E.A.P.S. conjugates on T cell responses is shown in this example. J-PG70 conjugates modulated the proliferation of T cells isolated from spleen or lymph-node cells from wild type BALB/c mice with PGIA or naïve, PG-TCR-transgenic BALB/c mice.
A general note: In an ELISA, binding on a coated surface is turned into a signal by an enzyme label.

In experiment [2] the test system is splenic T cells from BALB/c mice with PGIA. The experiment can be described thus: Splenic T cell proliferation, [3H]thymidine incorporation (stimulation index). The format is cell-based. The settings on record: 5 μM peptide, splenocytes of PGIA BALB/c mice, p<0.05. As for the experimental part:
as §1, §2
On the technique in general: Incorporation of labelled thymidine or its analogues reports DNA synthesis.

The test system of experiment [3] is IL-12p40. Description: Intracellular expression of IL-12p40 by DCs (flow cytometry). The format is cell-based, BALB/c mice. As for the experimental part:
FIG. 2 illustrates the effects of L.E.A.P.S.-PG conjugates on intracellular expression of IL-12p40 by DCs. DCs from BALB/c female retired breeder normal mice (n=3), having no PGIA disease (generated from bone marrow as described under FIG. 1) were incubated for 24 hours with the indicated peptides (5 μM each) at a cell density of 1×10^6 DCs/mL. DCs not receiving treatment (None) or treated with LPS (1 μg/ml) served as negative and positive controls, respectively. At the end of treatment, DCs were harvested and incubated with 1 μg/mL monensin (GolgiStop, BD Biosciences) for 4 hours to prevent cytokine secretion. Surface staining of DCs was done with fluoresecein isothiocyanate-(FITC) conjugated anti-CD11c antibody. The cells were then fixed and permeabilized using BD Biosciences' Cytofix/Cytoperm Kit. Intracellular IL-12 was detected with a phycoerythrin-(PE) labeled antibody to mouse IL-12p40 (eBioscience). Flow cytometry was carried out as described above. The number of IL-12p40+DCs was determined by gating on CD11c+ cells, and the results expressed as the % of IL-12p40+ of all CD11c+DCs. […] The error bars represent ±SEM.
In general terms: A flow cytometer gives signals particle by particle.

The test system of experiment [4] is Th1, Th2, Th17, and regulatory T cells (Tregs). The experiment can be described thus: Proportions of Th1, Th2, Th17 and Tregs in spleen cell cultures from vaccinated mice (flow cytometry). The format is in vivo. The note with it: spleen cell cultures from vaccinated PGIA mice, n=4 mice/group. As for the experimental part:
The proportions of Th1, Th2, Th17, and regulatory T cells (Tregs) in spleen cell cultures from the vaccinated mice were determined by flow cytometry. Protection was associated with decreased proportions of Th1 and Th17 cells, and increases in Th2 cells and Tregs (p<0.05-0.001, Fisher's LSD test; n=4 mice/group). […] This is similar to the pattern of cytokines secreted by the cells.
In this example, the effects of L.E.A.P.S.-PG peptide conjugate vaccination on the proportions of splenic Th1, Th2, Th17, and regulatory T cells (Tregs) are shown in FIG. 8. The proportions of Th1, Th2, Th17, and regulatory T cells (Tregs) in spleen cell cultures from the vaccinated mice were determined by flow cytometry. Protection was associated with decreased proportions of Th1 and Th17 cells, and increases in Th2 cells and Tregs (p<0.05-0.001, Fisher's LSD test; n=4 mice/group).

The subject of experiment [5] is spleen cells. The experiment can be described thus: PG-specific spleen cell proliferation of vaccinated PGIA mice (in vitro assay). The settings on record: cells from vaccinated PGIA mice, in vitro stimulation. It counts as in vivo. The source says: (§3) The joint sections were stained with hematoxylin and eosin. One representative section per group is shown. […] Protection was associated with reduced PG-specific T cell proliferation.

Experiment [6] has as its system proteoglycan-induced arthritis (PGIA). Description: L.E.A.P.S. peptide vaccination of PGIA mice, AI scores. The settings on record: n=8 mice/group. The format is in vivo. An excerpt: In this example, in vivo experiments of efficacy and protection are shown in FIG. 4, which indicates groups from a first study of efficacy of vaccine candidates, and related controls.

Experiment [7] concerns ankle (tibio-talar) joints. The experiment can be described thus: Histology of ankle (tibio-talar) joints of vaccinated PGIA mice. It counts as in vivo. The settings on record: PGIA mice 36 days after treatment, conjugate in adjuvant.
Description: Histology of ankle (tibio-talar) joints are shown in (A) normal mice and in (B-D) PGIA mice 36 days after undergoing treatment with L.E.A.P.S. conjugates. The normal joint is characterized by smooth cartilage surfaces on the tibia (Ti) and talus (Ta), inflammatory cell-free joint cavity (JC) and synovial tissue (ST). The ST is lined by a thin layer of cells and contains mainly fat tissue. Ankle joints from mice with PGIA shown in (B), treated with PBS in adjuvant, show evidence of synovial thickening (hyperplasia), inflammatory cell accumulation in the JC and ST, as well as partial erosion of cartilage surface (arrows).
as §3

For experiment [8], the system named is Bone marrow-derived DCs. Description: DC maturation in vitro: MHC class II and CD86 expression by flow cytometry. The format is cell-based. The note with it: 5 μM peptide, 24 hours, bone marrow-derived DCs of naïve BALB/c mice. As to the method: FIG. 1 illustrates the effects of PG and L.E.A.P.S.-PG conjugates on DC maturation as indicated by MHC class II and CD86 expression (left and right panels respectively) following treatment (24 hours). […] MFI: mean fluorescence intensity (arbitrary units). […]
To generate DCs, the bone marrow cells were cultured for 9 days in the presence of recombinant mouse granulocyte-macrophage colony stimulating factor (GM-CSF, Sigma-Aldrich, St Louis, Mo.) at a dose of 200 U/ml (Egelston C., Kurko J., Besenyei T. et al. (2012) Suppression of dendritic cell maturation and T cell proliferation by synovial fluid myeloid cells from mice with autoimmune arthritis. Arthritis Rheum 64: 3179-3188). […] After the 24-hour culture with the indicated stimulants, the cells were washed with PBS containing 0.5% bovine serum albumin and 0.01% sodium azide (fluorescence activated cell sorter (FACS) buffer). […]

With “ATEGRVRVNSAYQDK (listed as Homo Sapiens) [PG70, proteoglycan aggrecan (G1) residues 70-84, reference compound]”, in experiment [1], the “T cell polarization, Th1:Th2 cytokine (IFNγ:IL-4) ratio versus untreated” value was “significantly skewed towards a Th1 response”. Besides, the “T cell proliferation rate (stimulation index) versus untreated” value in experiment [2] is recorded as “significantly increased”.

Take “DLLKNGERIEKVEGGGATEG(Cit)VRVNSAYQDK (DLLKNGERIEKVEGGGATEG[Cit]VRVNSAYQDK) [J-PG70Cit]”: the “% of IL-12p40+ of all CD11c+ DCs” value in experiment [3] (peptide 5 μM, 24 hours, untreated group 3.8%) is reported as 7.3%. The “T cell polarization, Th1:Th2 cytokine (IFNγ:IL-4) ratio versus untreated” value in experiment [1] was “significant shift towards Th1; also recorded: significantly skewed towards a Th1 response”. Further, in experiment [2], the “T cell proliferation rate (stimulation index) versus untreated” value was “significantly increased”.

Take “DGQEEKAGVVSTGLIGGGATEGRVRVNSAYQDK (Heteroconjugate Construct) [DerG-PG70]”: the “Immune deviation (proportions of Th1, Th2, Th17, Tregs)” value in experiment [4] was “inducing immune deviation in favor of Th2 and Treg cells”. Moreover, in experiment [5], the “PG-specific spleen cell proliferation” value is listed as “much less responsive”. Further, the “T cell polarization, Th1:Th2 cytokine (IFNγ:IL-4) ratio versus untreated” value in experiment [1] is “significant shift towards Th2; also recorded: significantly skewed towards a Th2 response”. In experiment [2], the “T cell proliferation rate (stimulation index) versus untreated” value is “no significant difference”. Besides, the “Day from which difference from the other groups became statistically significant” value in experiment [6] (p<0.05 repeated measures ANOVA) is roughly 12 days. For the same substance, the “Disease severity (AI scores)” value in experiment [6] (vaccine in adjuvant) was “dramatically suppressed; also recorded: therapeutically effective”. The “Histology of ankle joints (synovial hyperplasia, cell infiltration, cartilage erosion)” value in experiment [7] is on record as “only mild ST hyperplasia as shown in (D), but no cell infiltration or cartilage damage”.

As to “DLLKNGERIEKVEGGGATEGRVRVNSAYQDK (Heteroconjugate Construct) [J-PG70, L.E.A.P.S. heteroconjugate of ICBL Peptide J linked to PG70 through a triglycine linker]”, the “IL-12 intracellular expression in matured DCs” value in experiment [3] (24 hours of incubation) is “modulated the IL-12 intracellular expression”. The “T cell polarization, Th1:Th2 cytokine (IFNγ:IL-4) ratio versus untreated” value in experiment [1] is on record as “significantly skewed towards a Th1 response”. The “T cell proliferation rate (stimulation index) versus untreated” value in experiment [2] is given as “higher T cell proliferation as compared to PG70; also recorded: significantly increased”. In experiment [8], the “DC maturation (MHC class II and CD86 surface marker expression)” value is on record as “led to matured dendritic cells”.
